# Source: patent US20230057568A1, “COMPOUNDS FOR TREATING FAMILIAL DYSAUTONOMIA” (PTC THERAPEUTICS, INC., priority 2019, published 2023)
# Tested on: Elongator complex protein 1 (ELP1, also referred to as IKBKAP)
# Assay: IKBKAP-HTRF Assay
# Format: cell-based, human
# Conditions: FD patient-derived fibroblasts GM04589, 48 hours incubation; for EC2x for IKBKAP protein expression (concentration producing two times the amount of IKBKAP protein vs DMSO vehicle control): 7-point concentration curve; for MFI (maximum fold increase in IKBKAP protein abundance relative to the vehicle control): HTRF
# In short: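 FD patient cells in DMEM-10% FBS were treated 48 hours at 37 °C with a 7-point, 3.16-fold compound series in triplicate, then lysed. IKBKAP was quantified by sandwich HTRF with two anti-IKAP antibodies, incubated overnight at 4 °C and read at 665/620 nm. MFI is AF relative to vehicle, and EC2× is the concentration doubling IKBKAP versus DMSO.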
SMILES,EC2x for IKBKAP protein expression (concentration producing two times the amount of IKBKAP protein vs DMSO vehicle control),MFI (maximum fold increase in IKBKAP protein abundance relative to the vehicle control)
"Cc1c(C[C@H](C)CO)sc2c(NCc3ccco3)nc(Cl)nc12 [Cpd 66, (2S)-3-(2-chloro-4-{[(furan-2-yl)methyl]amino}-7-methylthieno[3,2-d]pyrimidin-6-yl)-2-methylpropan-1-ol]",* (EC2×>1 μM),* (MFI<1.9)
"Cc1c(CCCN)sc2c(NCc3ccco3)nc(Cl)nc12 [Cpd 67, 6-(3-aminopropyl)-2-chloro-N-[(furan-2-yl)methyl]-7-methylthieno[3,2-d]pyrimidin-4-amine]",* (EC2×>1 μM),* (MFI<1.9)
"C[C@H](N)Cc1sc2c(NCc3ccncc3F)nc(Cl)nc2c1Br [Cpd 68, 6-[(2S)-2-aminopropyl]-7-bromo-2-chloro-N-[(3-fluoropyridin-4-yl)methyl]thieno[3,2-d]pyrimidin-4-amine]",***** (<0.005 μM),***** (>4.9)
"CC[C@H](N)Cc1sc2c(NCc3ncco3)nc(Cl)nc2c1C [Cpd 69, 6-[(2S)-2-aminobutyl]-2-chloro-7-methyl-N-[(1,3-oxazol-2-yl)methyl]thieno[3,2-d]pyrimidin-4-amine]",**** (between >0.005 μM and ≤0.02 μM),***** (>4.9)
"Cc1c(C[C@H](C)CN)sc2c(NCc3ccco3)nc(Cl)nc12 [Cpd 70, 6-[(2S)-3-amino-2-methylpropyl]-2-chloro-N-[(furan-2-yl)methyl]-7-methylthieno[3,2-d]pyrimidin-4-amine]",*** (between >0.02 μM and ≤0.5 μM),**** (between >3.9 and <4.9)
"Cc1c(C[C@@H](C)CO)sc2c(NCc3ccco3)nc(Cl)nc12 [Cpd 71, (2R)-3-(2-chloro-4-{[(furan-2-yl)methyl]amino}-7-methylthieno[3,2-d]pyrimidin-6-yl)-2-methylpropan-1-ol]",* (EC2×>1 μM),* (MFI<1.9)
"Cc1c(C[C@@H](C)CN)sc2c(NCc3ccco3)nc(Cl)nc12 [Cpd 72, 6-[(2R)-3-amino-2-methylpropyl]-2-chloro-N-[(furan-2-yl)methyl]-7-methylthieno[3,2-d]pyrimidin-4-amine]",*** (between >0.02 μM and ≤0.5 μM),*** (between >2.9 and <3.9)
"Cc1c(C[C@H](C)N)sc2c(NCc3ncc[nH]3)nc(Cl)nc12 [Cpd 73, 6-[(2S)-2-aminopropyl]-2-chloro-N-[(1H-imidazol-2-yl)methyl]-7-methylthieno[3,2-d]pyrimidin-4-amine]",*** (between >0.02 μM and ≤0.5 μM),** (between >1.9 and <2.9)
"Cc1c(C[C@H](C)N)sc2c(NCc3cncs3)nc(Cl)nc12 [Cpd 74, 6-[(2S)-2-aminopropyl]-2-chloro-7-methyl-N-[(1,3-thiazol-5-yl)methyl]thieno[3,2-d]pyrimidin-4-amine]",*** (between >0.02 μM and ≤0.5 μM),**** (between >3.9 and <4.9)
"Cc1c(C[C@H](C)N)sc2c(NCc3cnco3)nc(Cl)nc12 [Cpd 75, 6-[(2S)-2-aminopropyl]-2-chloro-7-methyl-N-[(1,3-oxazol-5-yl)methyl]thieno[3,2-d]pyrimidin-4-amine]",*** (between >0.02 μM and ≤0.5 μM),***** (>4.9)
"COC[C@H](N)Cc1sc2c(NCc3ccco3)nc(Cl)nc2c1C [Cpd 76, 6-[(2R)-2-amino-3-methoxypropyl]-2-chloro-N-[(furan-2-yl)methyl]-7-methylthieno[3,2-d]pyrimidin-4-amine]",***** (<0.005 μM),***** (>4.9)
"CCc1c(C[C@H](C)N)sc2c(NCc3ccco3)nc(Cl)nc12 [Cpd 77, 6-[(2S)-2-aminopropyl]-2-chloro-7-ethyl-N-[(furan-2-yl)methyl]thieno[3,2-d]pyrimidin-4-amine]",**** (between >0.005 μM and ≤0.02 μM),***** (>4.9)
"Cc1c(C[C@H](C)NC2CCC2)sc2c(NCc3ccco3)nc(Cl)nc12 [Cpd 78, 2-chloro-6-[(2S)-2-(cyclobutylamino)propyl]-N-[(furan-2-yl)methyl]-7-methylthieno[3,2-d]pyrimidin-4-amine]",*** (between >0.02 μM and ≤0.5 μM),*** (between >2.9 and <3.9)
"CN[C@@H](C)Cc1sc2c(NCc3ccco3)nc(Cl)nc2c1C [Cpd 79, 2-chloro-N-[(furan-2-yl)methyl]-7-methyl-6-[(2S)-2-(methylamino)propyl]thieno[3,2-d]pyrimidin-4-amine]",*** (between >0.02 μM and ≤0.5 μM),**** (between >3.9 and <4.9)
"Clc1nc(NCc2cccs2)c2scc(Br)c2n1 [Cpd 80, 7-bromo-2-chloro-N-[(thiophen-2-yl)methyl]thieno[3,2-d]pyrimidin-4-amine]",*** (between >0.02 μM and ≤0.5 μM),***** (>4.9)
"Cc1c(C[C@H](C)N)sc2c(NCc3ccnn3C)nc(Cl)nc12 [Cpd 81, 6-[(2S)-2-aminopropyl]-2-chloro-7-methyl-N-[(1-methyl-1H-pyrazol-5-yl)methyl]thieno[3,2-d]pyrimidin-4-amine]",* (EC2×>1 μM),* (MFI<1.9)
"C[C@H](N)Cc1sc2c(NCc3cccs3)nc(Cl)nc2c1Br [Cpd 82, 6-[(2S)-2-aminopropyl]-7-bromo-2-chloro-N-[(thiophen-2-yl)methyl]thieno[3,2-d]pyrimidin-4-amine]",***** (<0.005 μM),***** (>4.9)
"C[C@H](N)Cc1sc2c(NCc3cccs3)nc(C#N)nc2c1Br [Cpd 83, 6-[(2S)-2-aminopropyl]-7-bromo-4-{[(thiophen-2-yl)methyl]amino}thieno[3,2-d]pyrimidine-2-carbonitrile]",**** (between >0.005 μM and ≤0.02 μM),***** (>4.9)
"N#Cc1csc2c(NCc3cccs3)nc(Cl)nc12 [Cpd 84, 2-chloro-4-{[(thiophen-2-yl)methyl]amino}thieno[3,2-d]pyrimidine-7-carbonitrile]",*** (between >0.02 μM and ≤0.5 μM),**** (between >3.9 and <4.9)
"C[C@H](N)Cc1sc2c(NCc3cccs3)nc(C#N)nc2c1C#N [Cpd 85, 6-[(2S)-2-aminopropyl]-4-{[(thiophen-2-yl)methyl]amino}thieno[3,2-d]pyrimidine-2,7-dicarbonitrile]",*** (between >0.02 μM and ≤0.5 μM),*** (between >2.9 and <3.9)
"C[C@H](N)Cc1sc2c(NCc3cccs3)nc(Cl)nc2c1C1CC1 [Cpd 86, 6-[(2S)-2-aminopropyl]-2-chloro-7-cyclopropyl-N-[(thiophen-2-yl)methyl]thieno[3,2-d]pyrimidin-4-amine]",**** (between >0.005 μM and ≤0.02 μM),**** (between >3.9 and <4.9)
"C[C@H](N)Cc1sc2c(NCc3cccs3)nc(Cl)nc2c1-c1ccccc1 [Cpd 87, 6-[(2S)-2-aminopropyl]-2-chloro-7-phenyl-N-[(thiophen-2-yl)methyl]thieno[3,2-d]pyrimidin-4-amine]",* (EC2×>1 μM),* (MFI<1.9)
"C[C@H](N)Cc1sc2c(NCc3cccs3)nc(Cl)nc2c1-c1ccc(Cl)cc1 [Cpd 88, 6-[(2S)-2-aminopropyl]-2-chloro-7-(4-chlorophenyl)-N-[(thiophen-2-yl)methyl]thieno[3,2-d]pyrimidin-4-amine]",* (EC2×>1 μM),* (MFI<1.9)
"CC[C@H](N)Cc1sc2c(NCc3ccncn3)nc(Cl)nc2c1C [Cpd 89, 6-[(2S)-2-aminobutyl]-2-chloro-7-methyl-N-[(pyrimidin-4-yl)methyl]thieno[3,2-d]pyrimidin-4-amine]",***** (<0.005 μM),***** (>4.9)
"Cc1c(C[C@H](C)N)sc2c(NCc3sccc3F)nc(Cl)nc12 [Cpd 90, 6-[(2S)-2-aminopropyl]-2-chloro-N-[(3-fluorothiophen-2-yl)methyl]-7-methylthieno[3,2-d]pyrimidin-4-amine]",***** (<0.005 μM),***** (>4.9)
